pIC50: −log10 of the molar value.
Molecular target: T1, E-selectin (Homo sapiens, UniProt P16581)
T1 sequence (P16581 whole entry): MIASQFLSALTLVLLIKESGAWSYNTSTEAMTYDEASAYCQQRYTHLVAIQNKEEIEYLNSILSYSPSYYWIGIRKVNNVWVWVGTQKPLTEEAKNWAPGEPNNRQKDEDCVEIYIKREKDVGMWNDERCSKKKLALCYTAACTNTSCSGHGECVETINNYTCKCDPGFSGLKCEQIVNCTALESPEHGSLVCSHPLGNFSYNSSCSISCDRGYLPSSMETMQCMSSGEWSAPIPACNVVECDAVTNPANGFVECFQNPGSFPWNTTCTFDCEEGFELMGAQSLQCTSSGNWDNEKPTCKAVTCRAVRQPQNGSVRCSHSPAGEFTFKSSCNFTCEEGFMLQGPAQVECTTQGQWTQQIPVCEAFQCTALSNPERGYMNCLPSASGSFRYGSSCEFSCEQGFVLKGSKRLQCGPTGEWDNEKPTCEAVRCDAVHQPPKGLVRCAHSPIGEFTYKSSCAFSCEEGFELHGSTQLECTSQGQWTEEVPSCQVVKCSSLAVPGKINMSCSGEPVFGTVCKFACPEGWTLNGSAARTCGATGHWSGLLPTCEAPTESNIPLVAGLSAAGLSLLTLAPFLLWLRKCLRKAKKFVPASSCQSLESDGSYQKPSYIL
Assay: In vitro inhibitory activity against Selectin E binding to human recombinant AGP (alpha-1 acid glycoprotein); call rule not given here

Row | SMILES | pIC50
1 | O=C(O)CC[C@H](NC(=O)CC1OC(CO)C(O)C(O)C1O)C(=O)O (some centres not stated) | 2.52
2 | NC(=O)[C@H](Cc1ccccc1)NCC1OC(CC(=O)N[C@@H](CCC(=O)O)C(=O)O)C(O)C(O)C1O (some centres not stated) | 2.17
3 | O=C(O)CC[C@@H](NC(=O)CC1OC(CO)C(O)C(O)C1O)C(=O)O (some centres not stated) | 2.15
4 | O=C(O)CC[C@H](NC(=O)CC1OC(CN2CCC(O)(Cc3ccccc3)CC2)C(O)C(O)C1O)C(=O)O (some centres not stated) | 2.80
5 | O=C(O)CCCc1ccc(NC(=O)CC2OC(CO)C(O)C(O)C2O)cc1 (configuration not stated) | < 2.00
6 | O=C(O)CC[C@H](NC(=O)CC1OC(CNc2cc(C(=O)O)cc(C(=O)O)c2)C(O)C(O)C1O)C(=O)O (some centres not stated) | 2.22
7 | NC(=O)CC[C@@H](NC(=O)CC1OC(CO)C(O)C(O)C1O)C(=O)O (some centres not stated) | < 2.00
8 | CC1CCCC(N(C)CC2OC(CC(=O)N[C@@H](CCC(=O)O)C(=O)O)C(O)C(O)C2O)C1 (some centres not stated) | 2.10
9 | O=C(O)C[C@@H](NC(=O)CC1OC(CO)C(O)C(O)C1O)C(=O)O (some centres not stated) | 2.22
10 | O=C(O)CCc1ccc(NC(=O)CC2OC(CO)C(O)C(O)C2O)cc1 (configuration not stated) | 2.00
11 | NCCCC[C@@H](NC(=O)CC1OC(CO)C(O)C(O)C1O)C(=O)O (some centres not stated) | 2.15

Molecular target: T1, E-selectin
Assay: In vitro inhibitory activity against binding of Selectin E to human recombinant AGP (alpha-1 acid glycoprotein) at a concentration of 10 mM; NA- Not active

Row | SMILES | IC50
12 | Cc1cccc(N2CCN(CC3OC(CC(=O)N[C@@H](CCC(=O)O)C(=O)O)C(O)C(O)C3O)CC2)c1C (some centres not stated) | Not Active
13 | C[C@@H](Cc1ccccc1)N(C)CC1OC(CC(=O)N[C@@H](CCC(=O)O)C(=O)O)C(O)C(O)C1O (some centres not stated) | Not Active
14 | NC(=O)CC1OC(CO)C(O)C(O)C1O (configuration not stated) | Not Active
15 | O=C(O)C(NCCC1OC(CO)C(O)C(O)C1O)c1cc2ccccc2[nH]1 (configuration not stated) | Not Active
16 | O=C(O)c1cc(NCCC2OC(CO)C(O)C(O)C2O)cc(C(=O)O)c1 (configuration not stated) | Not Active
17 | NC(=O)[C@H]1CCCN1CC1OC(CC(=O)N[C@@H](CCC(=O)O)C(=O)O)C(O)C(O)C1O (some centres not stated) | Not Active
